pIC50: −log10 of the molar value. “And” between values parts separate entries of the source, which are not always exact repeats. Equal entries are not always repeated.
Biological target: T1, HEK 293 GPR73 (prokineticin 1 receptor) expressing cells (Homo sapiens, UniProt Q8TCW9)
T1 construct: expressed in transfected cells; host or cells: HEK 293
Test: PK1 functional assay: screening for PK1 antagonists on the FLIPR (calcium fluorescence)
Assay type: cell-based
Conditions: HEK 293 GPR73 cells; for inhibition at 10 µM: HEK293, compound at 10 μM, read-out: Ca^2+ Mobilization % Inh @10 μM; for inhibition at 10 µM / Ca^2+ Mobilization % Inh @10 μM: multiple values = repeat tests; for pIC50: PK1 ligand at EC50, multiple values = repeat tests, read-out: Ca^2+ Mobilization IC50; for Ca^2+ Mobilization % Inh @10 μM: compound at 10 μM
Protocol: At a time of 24 h prior to running the assay, in cell culture media (DMEM containing high Glucose and L-glutamine, 10% FBS, 1% Pen/Streptomycin, 1% Sodium Pyruvate, 20 mM HEPES, Zeocin 200 mg/L), 100 μL of 1.3*10^6/ml HEK 293 GPR73 (prokineticin 1 receptor) expressing cells were plated in a 96 well poly-d-lysine coated plate (Costar), and incubated at 37 C and 5% CO2. On the day in which the assay was run, the media was removed and 200 μL of 5× Calcium Plus Dye (Molecular Devices) which was previously resuspended with 200 mL of assay buffer [HBSS w/Ca^2+ and Mg^2+ w/o phenol red, 20 mM HEPES, 0.1% BSA, 10 mL probenecid (710 mg probenecid in 5 mL of 1N NaOH, to which was then added 5 mL HBSS containing 20 mM HEPES)] was added to each well of the 96-well plate. The plate was incubated at 37 C and 5% CO2 for 30 min in dark. The plate was removed and allowed to reach RT for 15 min in the dark. The assay was then run on the FLIPR. […] Baseline is described as the amount of relative fluorescence read when buffer alone is added to cells. Baseline was subtracted from all wells. Percent of control was calculated as follows:
(Baseline subtracted well value is divided by baseline subtracted max value)*100.
Percent inhibition is 100 minus the percent of control value.
IC50 values were calculated using GraphPad Prism.
Table 2 includes data generated from the PK1 functional assay described in Example 2.

T1 sequence (Q8TCW9 whole entry): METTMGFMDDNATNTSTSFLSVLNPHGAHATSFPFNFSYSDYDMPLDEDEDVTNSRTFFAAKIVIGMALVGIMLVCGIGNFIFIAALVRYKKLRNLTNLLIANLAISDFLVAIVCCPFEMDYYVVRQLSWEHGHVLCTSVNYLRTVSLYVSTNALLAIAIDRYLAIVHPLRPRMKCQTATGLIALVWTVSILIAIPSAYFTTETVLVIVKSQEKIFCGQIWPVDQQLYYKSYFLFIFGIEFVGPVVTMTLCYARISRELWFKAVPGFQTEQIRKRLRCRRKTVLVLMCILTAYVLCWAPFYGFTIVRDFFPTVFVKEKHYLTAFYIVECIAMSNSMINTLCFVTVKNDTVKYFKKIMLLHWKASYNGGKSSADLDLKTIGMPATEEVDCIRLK

inhibition at 10 µM | pIC50 | Ca^2+ Mobilization % Inh @10 μM (10 µM) | Ca^2+ Mobilization % Inh @10 μM | SMILES
92% | 6.55 | – | – | COc1ccc(Cn2c(N[C@@H]3CCCC[C@@H]3NC(=N)N)nc(=O)n(Cc3ccc(Cl)c(Cl)c3)c2=O)cc1 (racemic) [Cpd 42]
30% | < 5.00 | – | – | NC(N)=NCCNc1nc(=O)n(Cc2ccccc2)c(=O)n1Cc1ccc(F)cc1 [Cpd 1]
92% | 6.90 and 6.44 and 6.47 and 6.03 | 85% and 74% and 87% | – | COc1ccc(Cn2c(NCCNC(=N)N)nc(=O)n(Cc3ccccc3)c2=O)cc1 [Cpd 2]
– | 5.30 | – | 52% | COC(=O)c1ccc(Cn2c(NCCNC(=N)N)nc(=O)n(Cc3ccccc3)c2=O)cc1 [Cpd 3]
71% | 5.60 | – | – | COc1ccc(Cn2c(NCCNC(=N)N)nc(=O)n(CCc3ccccc3)c2=O)cc1 [Cpd 4]
67% | 5.66 | – | – | CCCCn1c(=O)nc(NCCNC(=N)N)n(Cc2ccc(OC)cc2)c1=O [Cpd 5]
59% | 5.59 | – | – | COc1ccc(Cn2c(NCCNC(=N)N)nc(=O)n(Cc3ccco3)c2=O)cc1 [Cpd 6]
52% | < 5.00 | – | – | N=C(N)NCCNc1nc(=O)n(Cc2ccccc2)c(=O)n1Cc1cccc(C(F)(F)F)c1 [Cpd 7]
64% | 5.41 | – | – | CC(C)(C)c1ccc(Cn2c(NCCNC(=N)N)nc(=O)n(Cc3ccccc3)c2=O)cc1 [Cpd 8]
– | < 5.00 | – | 35% | N=C(N)NCCNc1nc(=O)n(Cc2ccccc2)c(=O)n1Cc1ccc([N+](=O)[O-])cc1 [Cpd 9]
– | < 5.00 | – | 33% | COc1ccc(Cn2c(NCCONC(=N)N)nc(=O)n(Cc3ccccc3)c2=O)cc1 [Cpd 10]
32% | < 5.00 | – | – | N=C(N)NCCNc1nc(=O)n(Cc2ccccc2)c(=O)n1Cc1ccncc1 [Cpd 11]
97% | 7.47 and 7.09 and 6.61 | 96% and 94% and 90% | – | CCOc1ccc(Cn2c(NCCNC(=N)N)nc(=O)n(Cc3ccccc3)c2=O)cc1 [Cpd 12]
92% | 6.98 and 6.59 | 91% | – | N=C(N)NCCNc1nc(=O)n(Cc2ccccc2)c(=O)n1Cc1ccc(OC(F)F)cc1 [Cpd 13]
55% | 5.21 | – | – | N=C(N)NCCNc1nc(=O)n(Cc2ccccc2)c(=O)n1Cc1ccc(C(F)(F)F)cc1 [Cpd 15]
77% | 6.08 | – | – | COc1ccc(Cn2c(NCCNC(=N)N)nc(=O)n(Cc3ccccc3F)c2=O)cc1 [Cpd 16]
100% | 7.85 and 7.48 and 7.06 | 99% and 97% | – | COc1ccc(Cn2c(NCCNC(=N)N)nc(=O)n(Cc3ccc(F)cc3)c2=O)cc1 [Cpd 17, N-{2-[5-(4-Fluoro-benzyl)-1-(4-methoxy-benzyl)-4,6-dioxo-1,4,5,6-tetrahydro-[1,3,5]triazin-2-ylamino]-ethyl}-guanidine]
98% | 8.15 and 7.55 and 7.39 and 7.66 and 7.27 | 100% and 101% and 99% | – | COc1ccc(Cn2c(NCCNC(=N)N)nc(=O)n(Cc3ccc(Cl)c(Cl)c3)c2=O)cc1 [Cpd 18]
81% | 6.06 | – | – | N=C(N)NCCNc1nc(=O)n(Cc2ccccc2)c(=O)n1Cc1ccc(OC(F)(F)F)cc1 [Cpd 19]
61% | 5.43 | – | – | COc1ccc(Cn2c(NCCNC(=N)N)nc(=O)n(Cc3cccc(OC)c3)c2=O)cc1 [Cpd 20]

inhibition at 10 µM | pIC50 | Ca^2+ Mobilization % Inh @10 μM (10 µM) | Ca^2+ Mobilization % Inh @10 μM | SMILES
43% | < 5.00 | – | – | COc1ccc(Cn2c(NCCNC(=N)N)nc(=O)n(Cc3ccccc3OC)c2=O)cc1 [Cpd 21]
80% | 6.02 | – | – | N=C(N)NCCNc1nc(=O)n(Cc2ccccc2)c(=O)n1Cc1ccc(C(N)=O)cc1 [Cpd 22]
74% | 5.90 | – | – | CC(=O)Nc1ccc(Cn2c(NCCNC(=N)N)nc(=O)n(Cc3ccccc3)c2=O)cc1 [Cpd 23]
99% | 7.39 | – | – | CCOc1ccc(Cn2c(NCCNC(=N)N)nc(=O)n(Cc3ccc(F)cc3)c2=O)cc1 [Cpd 24]
101% | 6.15 | – | – | COc1ccc(Cn2c(NCCNC(=N)NC#N)nc(=O)n(Cc3ccc(Cl)c(Cl)c3)c2=O)cc1 [Cpd 28, N-{2-[5-(3,4-Dichloro-benzyl)-1-(4-methoxy-benzyl)-4,6-dioxo-1,4,5,6-tetrahydro-[1,3,5]triazin-2-ylamino]-ethyl}-N′-cyano-guanidine]
101% | 7.38 and 7.33 | 102% | – | CCOc1ccc(Cn2c(NCCNC(=N)N)nc(=O)n(Cc3ccc(Cl)c(Cl)c3)c2=O)cc1 [Cpd 29]
101% | 8.05 and 7.72 | 103% | – | COc1ccc(Cn2c(NCCNC(=N)N)nc(=O)n(Cc3ccc(Cl)cc3)c2=O)cc1 [Cpd 30]
101% | 8.05 and 7.68 | 102% | – | COc1ccc(Cn2c(NCCNC(=N)N)nc(=O)n(Cc3ccc(OC)cc3)c2=O)cc1 [Cpd 31]
88% | 6.22 and 6.11 | 86% | – | COc1ccc(Cn2c(NCCCCNC(=N)N)nc(=O)n(Cc3ccc(Cl)c(Cl)c3)c2=O)cc1 [Cpd 32]
66% | 5.54 | – | – | COc1ccc(CCn2c(NCCNC(=N)N)nc(=O)n(Cc3ccc(F)cc3)c2=O)cc1 [Cpd 33]
77% | 5.88 | – | – | N=C(N)NCCNc1nc(=O)n(Cc2ccc(Cl)c(Cl)c2)c(=O)n1Cc1ccc(OC2CCCC2)cc1 [Cpd 36]
98% | 7.42 and 6.70 and 6.49 | 100% and 98% and 99% | – | CSc1ccc(Cn2c(NCCNC(=N)N)nc(=O)n(Cc3ccc(Cl)c(Cl)c3)c2=O)cc1 [Cpd 37]
98% | 7.26 and 6.75 and 6.71 | 94% and 98% | – | CCc1ccc(Cn2c(NCCNC(=N)N)nc(=O)n(Cc3ccc(Cl)c(Cl)c3)c2=O)cc1 [Cpd 38]
81% | 6.04 | – | – | COc1ccc(Cn2c(NCCNC(=N)N)nc(=O)n(Cc3cccc(Cl)c3)c2=O)cc1 [Cpd 39]
98% | 6.61 | – | – | N=C(N)NCCNc1nc(=O)n(Cc2ccc(Cl)c(Cl)c2)c(=O)n1Cc1ccc(OC(F)(F)F)cc1 [Cpd 40]
101% | 7.57 and 7.33 and 7.19 | 100% and 99% | – | N=C(N)NCCNc1nc(=O)n(Cc2ccc(Cl)c(Cl)c2)c(=O)n1Cc1ccc(OC(F)F)cc1 [Cpd 41]
31% | < 5.00 | – | – | COc1ccc(Cn2c(N[C@H]3CCCC[C@@H]3NC(=N)N)nc(=O)n(Cc3ccc(Cl)c(Cl)c3)c2=O)cc1 [Cpd 43]
103% | 7.74 | – | – | COc1ccc(Cn2c(NCCNC(=N)N)nc(=O)n(Cc3ccc(SC)cc3)c2=O)cc1 [Cpd 45]
101% | 7.24 | – | – | CCc1ccc(Cn2c(=O)nc(NCCNC(=N)N)n(Cc3ccc(OC)cc3)c2=O)cc1 [Cpd 46, N-{2-[5-(4-Ethyl-benzyl)-1-(4-methoxy-benzyl)-4,6-dioxo-1,4,5,6-tetrahydro-[1,3,5]triazin-2-ylamino]-ethyl}-guanidine]

Reference: patent publication US20080045535A1, “Prokineticin 2 receptor antagonists” (priority 2005, published 2008)
